Where a name gives a salt, the structure may show the parent alone.
Biological target: T1, NHE3 (Homo sapiens, UniProt P48764)
T1 construct: due to the increase in NHE3 expression after differentiation; endogenous in cells; host or cells: human ileum / duodenum organoid-derived monolayers
T1 sequence (P48764 26-834): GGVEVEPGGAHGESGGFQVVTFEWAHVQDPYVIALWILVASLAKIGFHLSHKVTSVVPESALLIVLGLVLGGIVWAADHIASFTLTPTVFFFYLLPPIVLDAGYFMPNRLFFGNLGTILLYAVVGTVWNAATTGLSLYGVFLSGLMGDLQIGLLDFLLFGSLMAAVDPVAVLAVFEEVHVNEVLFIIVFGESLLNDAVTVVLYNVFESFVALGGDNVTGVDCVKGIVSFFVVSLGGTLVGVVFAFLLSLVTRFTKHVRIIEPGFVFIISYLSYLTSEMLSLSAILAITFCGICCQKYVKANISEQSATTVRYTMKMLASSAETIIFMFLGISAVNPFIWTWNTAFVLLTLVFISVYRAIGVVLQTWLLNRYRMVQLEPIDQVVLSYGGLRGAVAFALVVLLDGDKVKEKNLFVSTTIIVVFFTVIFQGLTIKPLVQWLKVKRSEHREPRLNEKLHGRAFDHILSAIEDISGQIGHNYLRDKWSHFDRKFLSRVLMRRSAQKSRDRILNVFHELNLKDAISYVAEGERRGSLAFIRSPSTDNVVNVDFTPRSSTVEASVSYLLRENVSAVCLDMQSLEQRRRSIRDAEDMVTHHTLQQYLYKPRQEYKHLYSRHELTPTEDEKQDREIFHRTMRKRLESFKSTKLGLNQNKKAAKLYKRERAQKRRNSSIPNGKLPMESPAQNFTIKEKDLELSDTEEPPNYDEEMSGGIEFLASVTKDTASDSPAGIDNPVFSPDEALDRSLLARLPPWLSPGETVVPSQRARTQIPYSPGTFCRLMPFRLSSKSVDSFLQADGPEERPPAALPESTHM
Assay: Sustained inhibition of apical acid secretion in human organoid monolayer cell cultures (ileum)
Type: cell-based
Settings: 1 μM apical, dosed day 6, apical media pH day 8
Protocol: Basal media (BM) consisted of advanced DMEM/F12 containing 10 mM HEPES (Invitrogen, 15630-080), 1:100 Glutamax (Invitrogen, 35050-061), and 1:100 penicillin/streptomycin (Invitrogen, 15140-122). […] Growth factors used included 50 ng per mL mouse EGF (Peprotech, 315-09), 100 ng per mL mouse noggin (Peprotech, 250-38), 500 ng per mL human R-spondin 1 (R&D, 4645-RS), 100 ng per mL mouse Wnt-3a (R&D, 1324-WN), 20 μM Y-27632 (Tocris, 1254), 10 mM nicotinamide (Sigma, N0636), 500 nM A83-01 (Tocris, 2939), 10 μM SB202190 (Tocris, 1264). Transwells were 0.4 μm pore polyester membrane 24-well Transwell inserts (Corning). Cultures were incubated at 37° C. in 5% CO2.
Human ileum organoids were cultured in WENRNAS (Wnt, EGF, noggin. R-spondin1. Nicotinamide. A83-01, SB202190) and typically grown for 7-12 days before being used to plate monolayer cultures. On day 0, organoid cultures embedded in Matrigel were treated with TrypLE Express to break organoids into small pieces and/or single cells. […]
Each human ileum monolayer culture well was washed twice with fresh SBM on the apical side on day 6 before compound dosing. […] On day 8, apical media pH was measured by pH electrode, to determine the ability of example compounds to produce sustained inhibition of NHE3 activity in a human monolayer culture system by preventing proton secretion into the apical compartment.

CN1Cc2c(Cl)cc(Cl)cc2[C@H](c2cccc(S(=O)(=O)NCCOCCOCCNC(=O)NCCCCNC(=O)NCCOCCOCCNS(=O)(=O)c3cccc([C@@H]4CN(C)Cc5c(Cl)cc(Cl)cc54)c3)c2)C1 (single isomer, unassigned) [Example 202, (S or R)—N,N′-(10,17-dioxo-3,6,21,24-tetraoxa-9,11,16,18-tetraazahexacosane-1,26-diyl)bis(3-((S)-6,8-dichloro-2-methyl-1,2,3,4-tetrahydroisoquinolin-4-yl)benzenesulfonamide) bis-hydrochloride salt]
% inhibition (ileum): C (>70%)

From patent US20190374533A1, “COMPOUNDS AND METHODS FOR INHIBITING NHE-MEDIATED ANTIPORT IN THE TREATMENT OF DISORDERS ASSOCIATED WITH FLUID RETENTION OR SALT OVERLOAD AND GASTROINTESTINAL TRACT DISORDERS” (Ardelyx, Inc., priority 2008, published 2019)
